# In ChEMBL document CHEMBL4828715, “Discovery, Structure-Activity Relationships, and In Vivo Evaluation of Novel Aryl Amides as Brain Penetrant Adaptor Protein 2-Associated Kinase 1 (AAK1) Inhibitors for the Treatment of Neuropathic Pain” (J Med Chem, 2021):
# Activity calls are given as the source filed them. The rule behind the calls is not given here.
# How the values were obtained:
# [1] = target: T1, AP2-associated protein kinase 1 (Homo sapiens, UniProt Q2M2I8); assay: Inhibition of recombinant GST-Xa-tagged human AAK1 (30 to 330 residues) using 5-FAM-labelled Alla-KEEQSQITSQVTGQIGWR-NH2 peptide as substrate incubated for 3 hrs in presence of ATP by electrophoretic analysis
# T1 sequence (Q2M2I8 whole entry, the tested form may be a part): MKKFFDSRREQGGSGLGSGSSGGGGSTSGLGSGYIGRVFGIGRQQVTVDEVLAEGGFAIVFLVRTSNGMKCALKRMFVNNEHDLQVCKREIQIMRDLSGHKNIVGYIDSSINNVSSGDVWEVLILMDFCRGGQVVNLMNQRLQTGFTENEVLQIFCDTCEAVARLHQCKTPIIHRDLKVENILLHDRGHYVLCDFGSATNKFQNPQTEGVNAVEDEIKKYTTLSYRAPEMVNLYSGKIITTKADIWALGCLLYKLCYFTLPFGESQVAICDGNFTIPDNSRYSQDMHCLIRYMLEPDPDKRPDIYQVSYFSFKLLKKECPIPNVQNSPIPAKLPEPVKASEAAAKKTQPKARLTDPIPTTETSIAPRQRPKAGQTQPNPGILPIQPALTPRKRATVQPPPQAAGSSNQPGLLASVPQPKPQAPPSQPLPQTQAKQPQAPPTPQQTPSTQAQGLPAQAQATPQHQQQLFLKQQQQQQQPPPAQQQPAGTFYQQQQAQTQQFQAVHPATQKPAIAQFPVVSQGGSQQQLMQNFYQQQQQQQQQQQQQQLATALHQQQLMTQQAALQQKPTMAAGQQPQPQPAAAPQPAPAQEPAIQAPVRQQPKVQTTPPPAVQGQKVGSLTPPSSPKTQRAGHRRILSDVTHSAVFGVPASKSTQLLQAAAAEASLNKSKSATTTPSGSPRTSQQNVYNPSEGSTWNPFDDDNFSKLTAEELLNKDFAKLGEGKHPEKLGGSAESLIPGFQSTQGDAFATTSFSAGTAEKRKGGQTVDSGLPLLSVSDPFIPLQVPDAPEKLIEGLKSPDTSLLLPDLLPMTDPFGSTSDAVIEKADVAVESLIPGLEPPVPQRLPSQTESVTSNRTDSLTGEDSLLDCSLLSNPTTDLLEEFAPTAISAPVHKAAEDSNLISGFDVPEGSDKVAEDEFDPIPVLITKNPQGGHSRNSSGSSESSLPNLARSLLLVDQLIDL
# [2] = target: T1, AP2-associated protein kinase 1; assay: Inhibition of human AAK1 expressed in HEK293 cells assessed as suppression of AP2 phosphorylation measured after 3 hrs by Western blot analysis; format: cell-based
# [3] = Protein binding in mouse plasma assessed as unbound fraction at 10 uM measured after 5 hrs by equilibrium dialysis method
# [4] = Drug concentration in C57BL6 mouse brain at 10 ml/kg, sc measured after 2 hrs by LC-MS/MS analysis; format: ADME, organism-based; details: read-out: Ct
# [5] = Unbound brain-to-plasma concentration ratio in C57BL6 mouse at 30 mg/kg, sc; format: ADME, organism-based; details: read-out: K(p,uu,brain)
# [6] = Aqueous solubility of the compound at pH 7.4; format: physicochemical
# [7] = target: Citron Rho-interacting kinase (Homo sapiens, UniProt O14578); assay: Inhibition of CRIK (unknown origin) assessed as residual binding level at 1 uM by Kinomescan method relative to control
# [8] = target: MAP kinase-interacting serine/threonine-protein kinase 1 (Homo sapiens, UniProt Q9BUB5); assay: Inhibition of wild-type human full length MKNK1 (M1 to L424 residues) expressed in mammalian expression system assessed as residual binding level at 1 uM by Kinomescan method relative to control
# [9] = target: cAMP-dependent protein kinase catalytic subunit PRKX (Homo sapiens) (UniProt P51817); assay: Inhibition of wild-type human partial length PRKX (M1 to F358 residues) expressed in bacterial expression system assessed as residual binding level at 1 uM by Kinomescan method relative to control
# cAMP-dependent protein kinase catalytic subunit PRKX (Homo sapiens), sequence (P51817 whole entry, the tested form may be a part): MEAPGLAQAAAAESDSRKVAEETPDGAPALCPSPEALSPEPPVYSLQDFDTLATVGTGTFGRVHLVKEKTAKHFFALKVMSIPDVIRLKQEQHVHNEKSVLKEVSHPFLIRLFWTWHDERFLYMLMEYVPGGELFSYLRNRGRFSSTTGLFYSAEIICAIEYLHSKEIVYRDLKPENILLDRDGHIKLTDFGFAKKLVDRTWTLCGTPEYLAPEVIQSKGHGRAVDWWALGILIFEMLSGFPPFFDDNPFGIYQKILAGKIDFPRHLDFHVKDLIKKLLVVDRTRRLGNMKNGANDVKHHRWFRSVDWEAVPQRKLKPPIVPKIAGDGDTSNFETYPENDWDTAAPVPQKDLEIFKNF
# [10] = target: Serine/threonine-protein kinase RIO2 (Homo sapiens) (UniProt Q9BVS4); assay: Inhibition of wild-type human partial length RIOK2 (M1 to D313 residues) expressed in mammalian expression system assessed as residual binding level at 1 uM by Kinomescan method relative to control
# Serine/threonine-protein kinase RIO2 (Homo sapiens), sequence (Q9BVS4 whole entry, looked up, the tested form may be a part): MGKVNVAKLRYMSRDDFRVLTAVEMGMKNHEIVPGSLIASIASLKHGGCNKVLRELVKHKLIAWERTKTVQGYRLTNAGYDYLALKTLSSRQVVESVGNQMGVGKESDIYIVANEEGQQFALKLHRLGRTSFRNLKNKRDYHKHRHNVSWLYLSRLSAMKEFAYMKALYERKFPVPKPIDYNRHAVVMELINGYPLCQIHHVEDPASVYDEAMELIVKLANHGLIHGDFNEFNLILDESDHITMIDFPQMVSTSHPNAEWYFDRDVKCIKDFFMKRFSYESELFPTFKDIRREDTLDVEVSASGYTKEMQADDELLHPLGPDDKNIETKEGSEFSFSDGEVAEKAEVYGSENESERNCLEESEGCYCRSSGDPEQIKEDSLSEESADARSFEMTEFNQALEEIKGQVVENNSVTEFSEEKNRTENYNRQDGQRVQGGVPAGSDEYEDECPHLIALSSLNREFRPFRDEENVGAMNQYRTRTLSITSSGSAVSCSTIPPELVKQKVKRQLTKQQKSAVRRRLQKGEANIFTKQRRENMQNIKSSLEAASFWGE
# [11] = target: SRSF protein kinase 1 (Homo sapiens) (UniProt Q96SB4); assay: Inhibition of wild-type human full length SRPK1 (M1 to S655 residues) expressed in bacterial expression system assessed as residual binding level at 1 uM by Kinomescan method relative to control
# [12] = target: Dual specificity protein kinase CLK4 (Homo sapiens, UniProt Q9HAZ1); assay: Inhibition of wild-type human partial length CLK4 (R135 to K481 residues) expressed in bacterial expression system by Kinomescan method
# [13] = target: Serine/threonine-protein kinase haspin (Homo sapiens, UniProt Q8TF76); assay: Inhibition of wild-type human partial length HASPIN (I452 to K798 residues) expressed in mammalian expression system by Kinomescan method relative to control
# Serine/threonine-protein kinase haspin, sequence (Q8TF76 whole entry, the tested form may be a part): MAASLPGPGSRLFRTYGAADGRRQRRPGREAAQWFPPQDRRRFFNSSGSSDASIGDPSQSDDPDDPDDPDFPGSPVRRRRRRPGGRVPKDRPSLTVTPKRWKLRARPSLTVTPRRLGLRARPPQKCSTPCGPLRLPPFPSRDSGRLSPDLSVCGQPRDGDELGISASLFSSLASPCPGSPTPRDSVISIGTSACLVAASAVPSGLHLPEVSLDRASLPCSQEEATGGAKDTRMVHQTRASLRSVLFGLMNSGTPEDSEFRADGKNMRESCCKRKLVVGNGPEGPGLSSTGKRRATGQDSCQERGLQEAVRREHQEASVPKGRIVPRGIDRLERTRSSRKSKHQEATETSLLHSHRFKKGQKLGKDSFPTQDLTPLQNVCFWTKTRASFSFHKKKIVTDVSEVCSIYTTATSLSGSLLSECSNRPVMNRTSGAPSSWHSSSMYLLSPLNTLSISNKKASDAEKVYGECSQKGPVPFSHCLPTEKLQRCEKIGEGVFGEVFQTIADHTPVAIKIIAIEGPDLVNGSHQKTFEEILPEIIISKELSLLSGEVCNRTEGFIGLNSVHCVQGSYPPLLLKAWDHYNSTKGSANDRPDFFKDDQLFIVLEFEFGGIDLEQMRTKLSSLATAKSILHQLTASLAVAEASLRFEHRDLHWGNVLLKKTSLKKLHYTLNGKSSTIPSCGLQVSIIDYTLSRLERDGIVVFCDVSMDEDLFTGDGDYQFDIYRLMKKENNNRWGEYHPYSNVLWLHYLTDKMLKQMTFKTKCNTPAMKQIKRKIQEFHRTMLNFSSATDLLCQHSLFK
# [14] = target: MAP kinase-interacting serine/threonine-protein kinase 2 (Homo sapiens, UniProt Q9HBH9); assay: Inhibition of wild-type human partial length MKNK2 (G63 to S388 residues) expressed in mammalian expression system by Kinomescan method
# [15] = target: cAMP-dependent protein kinase catalytic subunit PRKX (Homo sapiens, UniProt P51817); assay: Inhibition of wild-type human partial length PRKX (M1 to F358 residues) expressed in bacterial expression system by Kinomescan method
# cAMP-dependent protein kinase catalytic subunit PRKX, sequence (P51817 whole entry, the tested form may be a part): as the sequence (P51817 whole entry, the tested form may be a part) above
# [16] = target: Alpha-2A adrenergic receptor (Homo sapiens, UniProt P08913); assay: Inhibition of alpha 2A adrenergic receptor (unknown origin)
# Mu-type opioid receptor = Mu-type opioid receptor (Homo sapiens, UniProt P35372); assay: Inhibition of mu opioid receptor (unknown origin)
# [17] = target: Sodium-dependent serotonin transporter (Homo sapiens, UniProt P31645); assay: Inhibition of SERT (unknown origin)
# [18] = target: AP2-associated protein kinase 1 (Mus musculus) (UniProt Q3UHJ0); assay: In vivo inhibition of AAK1 in C57BL6 mouse assessed as suppression of mu2 phosphorylation in brain lysate at 3 mg/kg, sc measured after 30 mins by Western blot analysis relative to control; format: functional, organism-based
# AP2-associated protein kinase 1 (Mus musculus), sequence (Q3UHJ0 whole entry, looked up): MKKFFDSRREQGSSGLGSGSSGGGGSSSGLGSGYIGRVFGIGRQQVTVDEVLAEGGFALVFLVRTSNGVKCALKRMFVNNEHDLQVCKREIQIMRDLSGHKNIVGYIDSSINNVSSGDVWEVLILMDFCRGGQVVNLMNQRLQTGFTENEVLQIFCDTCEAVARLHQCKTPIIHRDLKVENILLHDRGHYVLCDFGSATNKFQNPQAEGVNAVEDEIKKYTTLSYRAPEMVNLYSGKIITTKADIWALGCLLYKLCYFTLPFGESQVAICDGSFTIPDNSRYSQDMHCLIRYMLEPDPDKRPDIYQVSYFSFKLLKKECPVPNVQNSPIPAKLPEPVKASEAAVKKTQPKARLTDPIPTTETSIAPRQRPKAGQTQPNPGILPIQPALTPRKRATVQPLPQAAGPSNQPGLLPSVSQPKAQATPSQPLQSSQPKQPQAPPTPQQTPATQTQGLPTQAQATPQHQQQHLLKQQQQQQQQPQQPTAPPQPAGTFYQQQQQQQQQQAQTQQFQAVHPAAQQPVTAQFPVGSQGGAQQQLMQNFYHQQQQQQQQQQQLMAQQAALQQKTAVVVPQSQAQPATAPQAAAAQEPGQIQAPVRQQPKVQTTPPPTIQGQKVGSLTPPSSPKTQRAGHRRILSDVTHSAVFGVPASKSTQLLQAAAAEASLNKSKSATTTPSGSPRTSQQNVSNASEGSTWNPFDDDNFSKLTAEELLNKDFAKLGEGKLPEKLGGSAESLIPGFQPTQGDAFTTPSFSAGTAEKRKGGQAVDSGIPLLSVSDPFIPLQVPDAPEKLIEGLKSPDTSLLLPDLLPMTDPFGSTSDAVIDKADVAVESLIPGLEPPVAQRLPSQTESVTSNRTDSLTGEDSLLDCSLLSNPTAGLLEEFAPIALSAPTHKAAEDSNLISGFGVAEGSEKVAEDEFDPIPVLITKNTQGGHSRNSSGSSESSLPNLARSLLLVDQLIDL
# [19] = target: AP2-associated protein kinase 1 (Mus musculus) (UniProt Q3UHJ0); assay: In vivo inhibition of AAK1 in C57BL6 mouse assessed as suppression of mu2 phosphorylation in brain lysate at 60 mg/kg, sc measured after 30 mins by Western blot analysis relative to control; format: functional, organism-based
# [20] = target: AP2-associated protein kinase 1 (Mus musculus) (UniProt Q3UHJ0); assay: In vivo inhibition of AAK1 in C57BL6 mouse assessed as suppression of mu2 phosphorylation in brain lysate at 30 mg/kg, sc measured; format: functional, organism-based
# [21] = Drug concentration in plasma of C57BL6 mouse at 1 mg/kg, sc; format: ADME, organism-based; details: in vivo
# [22] = target: AP2-associated protein kinase 1 (Mus musculus, UniProt Q3UHJ0); assay: In vivo inhibition of AAK1 in C57BL6 mouse assessed as suppression of mu2 phosphorylation in brain lysate by Western blot analysis; format: functional, organism-based
# AP2-associated protein kinase 1 (Mus musculus, UniProt Q3UHJ0), sequence (Q3UHJ0 whole entry): as the sequence (Q3UHJ0 whole entry, looked up) above
# Mus musculus [23] = assay: Antinociceptive activity against formalin-induced nociceptive behavior in C57BL6 mouse assessed as reduction in phase 2 hind paw licking/biting at 10 mg/kg, sc administered 60 mins prior to formalin challenge by formalin test; format: functional, organism-based
# Mus musculus [24] = assay: Antinociceptive activity against formalin-induced nociceptive behavior in C57BL6 mouse assessed as reduction in phase 1 hind paw flinching at 30 mg/kg, sc administered 60 mins prior to formalin challenge by formalin test; format: functional, organism-based
# Rattus norvegicus [25] = assay: Antinociceptive activity in Sprague-Dawley rat model of chronic constriction injury-induced neuropathic pain assessed as reduction in thermal hyperalgesia 60 mg/kg, sc by Von Frey test relative to control; format: functional; design: scale not given: the % may be the effect or the level left
# [26] = Ratio of drug concentration in brain to plasma of Sprague-Dawley rat model of chronic constriction injury-induced neuropathic pain at 60 mg/kg, sc measured after 240 mins; format: ADME, organism-based; details: read-out: BPR
# Rattus norvegicus [27] = assay: Antinociceptive activity in Sprague-Dawley rat model of chronic constriction injury-induced neuropathic pain assessed as reduction in thermal hyperalgesia 3 mg/kg, sc by Von Frey test relative to control; format: functional; design: scale not given: the % may be the effect or the level left
# [28] = Drug concentration in plasma of Sprague-Dawley rat model of chronic constriction injury-induced neuropathic pain at 3 mg/kg, sc; format: ADME, organism-based; details: in vivo
# [29] = Drug concentration in brain of Sprague-Dawley rat model of chronic constriction injury-induced neuropathic pain at 1 mg/kg, sc; format: ADME, organism-based; details: in vivo, read-out: Ct
# [30] = Drug concentration in brain of Sprague-Dawley rat model of chronic constriction injury-induced neuropathic pain at 30 mg/kg, sc; format: ADME, organism-based; details: in vivo, read-out: Ct
# [31] = Unbound drug concentration in plasma of Sprague-Dawley rat model of chronic constriction injury-induced neuropathic pain at 10 mg/kg, sc; format: ADME, organism-based; details: in vivo
# [32] = Unbound drug concentration in brain of Sprague-Dawley rat model of chronic constriction injury-induced neuropathic pain at 1 mg/kg, sc; format: ADME, organism-based; details: in vivo
# [33] = Unbound drug concentration in brain of Sprague-Dawley rat model of chronic constriction injury-induced neuropathic pain at 3 mg/kg, sc; format: ADME, organism-based; details: in vivo
# [34] = Induction of motor coordination impairment in Sprague-Dawley rat at 60 mg/kg, sc measured up to 180 mins by rotarod test; format: organism-based; details: in vivo, 3 h
# [35] = Drug concentration in Sprague-Dawley rat plasma at 30 mg/kg, sc measured after 190 mins; format: ADME, organism-based
smiles,measurement,setting,value
CC(C)C[C@@H](N)C(=O)Nc1ccc(-c2cnco2)c(OC(F)F)c1,IC50,[1],0.012 µM
same,IC50,[2],0.051 µM
same,"fraction unbound at 5 h, 10 µM",[3],0.041
same,concentration at 2 h,[4],18.5 µM
same,Kp uu,[5],0.71
same,solubility,[6],0.6 mg/mL
same,Activity,[7],0.7%
same,Activity,[8],8.4%
same,Activity,[9],19%
same,Activity,[10],3.8%
same,Activity,[11],12%
same,IC50,[12],1.93 µM
same,IC50,[13],0.922 µM
same,IC50,[14],0.428 µM
same,IC50,[15],0.326 µM
same,IC50,[16],> 30 µM
same,IC50,Mu-type opioid receptor,> 30 µM
same,IC50,[17],> 30 µM
same,inhibition,[18],13%
same,inhibition,[19],80%
same,inhibition,[20],Active
same,concentration,[21],1.2 µM
same,EC50,[22],8.3 µM
same,Activity,Mus musculus [23],Active
same,Activity,Mus musculus [24],Active
same,Activity,Rattus norvegicus [25],113%
same,Kp at 4 h,[26],0.5
same,Activity,Rattus norvegicus [27],35%
same,concentration,[28],1.1 µM
same,concentration,[29],0.35 µM
same,concentration,[30],33 µM
same,Cp(f),[31],0.22 µM
same,Drug uptake(free),[32],0.01 µM
same,Drug uptake(free),[33],0.03 µM
same,Activity,[34],Non-Toxic
same,concentration at 3.167 h,[35],3.4 µM
